In patent EP3095787A1, “[…] ACTIVE COMPOUNDS AS DAG-LIPASE INHIBITORS” (Universiteit Leiden, priority 2015, dated 2016):
“Also recorded” adds a separate entry of the source.

Tests used:
recombinant human MAGL = target: T1, recombinant human MAGL (Homo sapiens, UniProt Q99685); experiment: MAGL assay (glycerol detection, 2-AG as substrate); assay type: biochemical
T1 construct: expressed in transfected cells; membranes overexpressing MAGL
T1 sequence (Q99685 1-303): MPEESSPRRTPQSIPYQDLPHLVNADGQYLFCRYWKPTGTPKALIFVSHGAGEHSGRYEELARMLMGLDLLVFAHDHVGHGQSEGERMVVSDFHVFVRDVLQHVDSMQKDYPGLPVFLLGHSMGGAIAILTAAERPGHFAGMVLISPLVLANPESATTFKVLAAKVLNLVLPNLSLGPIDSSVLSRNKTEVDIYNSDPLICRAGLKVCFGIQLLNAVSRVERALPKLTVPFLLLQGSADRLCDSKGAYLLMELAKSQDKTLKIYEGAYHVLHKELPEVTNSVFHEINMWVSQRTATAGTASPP
Excerpt: This methodology allows for a more accurate quantification avoiding band overlap (as observed with gel-based assay) and allows screening over a broader range of specified serine hydrolases. Equal isotopic labeling and detection of light and medium peptides from proteins targeted by both ABPs (Figure 2G) were validated. Next, to investigate the selectivity of inventive compound 25 in this chemoproteomic assay was set out. […] In addition, the inventors tested compound 25 in biochemical assays using recombinant human MAGL and in a cannabinoid CB1 receptor radioligand displacement assay. A significant interaction ([…]) with these proteins of the endocannabinoid system could not be found. The CB1 displacement assays were performed as described below.
MAGL assay was performed as described below. Standard assays were performed under similar conditions as for the glycerol detection besed DAGL-α activity assay , but at a final protein concentration of 1.5 µg/mL (0.3 µg MAGL-overexpressing membranes per well) and with 2-arachidonoylglycerol (2-AG) as the substrate. 2-AG was directly added from a stock solution in acetonitrile and no Triton X-100 was added. Fluorescence was measured in 5 min intervals for 60 min. Final assay concentrations: 0.2 U/mL GK, GPO and HRP, 0.125 mM ATP, 10 µM Amplifu™Red, 25 µM 2-AG, 5% DMSO, 0.5% ACN in a total volume of 200 µL.

serine hydrolases = experiment: Chemoproteomics with THL-biotin (MB108) and FP-biotin in mouse brain membrane proteome: other serine hydrolases; assay type: biochemical; details: 10 µM, 30 min
Protocol: Since, the human serine hydrolase family contains approximately 200 family members, the selectivity in brain proteome was examined in a broader and more detailed manner. […] Mouse brain proteome (500 μL, 2.0 mg/mL) membrane or soluble fraction was incubated with vehicle (DMSO) or inhibitor (10 μM) in DMSO for 30 minutes at rt. The proteome was labeled with MB108 (2.5 μM, 30 minutes, rt) or FP-Biotin (5 μM, 30 minutes, 37 °C). Subsequently the labeling reaction was quenched and excess probe was removed by chloroform methanol precipitation. Precipitated proteome was suspended in 500 μL 6M Urea/25 mM ammonium bicarbonate and allowed to incubate for 15 minutes. 5 μL (1 M DTT) was added and the mixture was heated to 65 °C for 15 minutes. […] The sample was diluted with 6 mL PBS. 100 μL of 50% slurry of Avidin-Agarose from egg white (Sigma-Aldrich) was washed with PBS and added to the proteome sample. The beads were incubated with the proteome > 2h. The beads were isolated by centrifugation and washed with 0.5% (wt/vol) SDS and PBS (3x). […] Tryptic peptides were analyzed on a Surveyor nanoLC system (Thermo) hyphenated to a LTQ-Orbitrap mass spectrometer (Thermo). […] Fragmented precursor ions that were measured twice within 10 s were dynamically excluded for 60 s and ions with z < 2 or unassigned were not analyzed. […]

Ki (recombinant human MAGL): > 10 µM
Structure (SMILES): Cc1ccc(-c2cnc3nc(C(=O)CCCCCc4ccccc4)oc3c2)cc1 [Compound 25, 1-(6-(p-Tolyl)oxazolo[4,5-b]pyridin-2-yl)-6-phenylhexan-1-one]
labeling of other serine hydrolases (serine hydrolases): no other targets were detected; also recorded: not of any other serine hydrolase identified
